Experimental data as given in patent US9790230B2 (Hoffmann-La Roche Inc., priority 2015, dated 2017).
Read-outs that look alike come from different tables or passages of the source.

Tests used:
[1] = target: mouse TAAR1 (Mus musculus (Mouse), UniProt Q923Y8); test: Radioligand binding assay on mouse TAAR1
[2] = target: rat TAAR1 (Rattus norvegicus (Rat), UniProt Q923Y9); test: Radioligand binding assay on rat TAAR1;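 note: membranes from HEK293 cells stably transfected with rat TAAR1, tritiated TAAR1 radioligand, 1 h incubation at 4 °C, nonspecific binding determined with excess unlabeled ligand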
rat TAAR1, sequence (Q923Y9 whole entry): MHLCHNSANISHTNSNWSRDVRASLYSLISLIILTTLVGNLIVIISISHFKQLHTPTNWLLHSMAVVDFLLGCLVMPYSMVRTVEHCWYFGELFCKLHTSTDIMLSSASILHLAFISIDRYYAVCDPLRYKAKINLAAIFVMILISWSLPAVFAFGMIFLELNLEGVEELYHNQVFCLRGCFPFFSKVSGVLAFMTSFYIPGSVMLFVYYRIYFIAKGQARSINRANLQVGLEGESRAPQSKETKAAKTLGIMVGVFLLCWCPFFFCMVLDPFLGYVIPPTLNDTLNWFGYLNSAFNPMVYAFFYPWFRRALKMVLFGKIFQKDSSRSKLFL

mouse TAAR1, sequence (Q923Y8 whole entry): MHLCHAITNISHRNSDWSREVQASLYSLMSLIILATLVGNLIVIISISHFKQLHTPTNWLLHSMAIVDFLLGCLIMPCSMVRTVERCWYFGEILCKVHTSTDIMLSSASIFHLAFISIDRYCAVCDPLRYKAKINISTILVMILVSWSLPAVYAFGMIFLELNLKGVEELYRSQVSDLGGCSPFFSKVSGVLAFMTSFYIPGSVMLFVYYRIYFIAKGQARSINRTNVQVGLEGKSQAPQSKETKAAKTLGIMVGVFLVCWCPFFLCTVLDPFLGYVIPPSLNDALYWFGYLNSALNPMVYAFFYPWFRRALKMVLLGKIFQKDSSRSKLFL

SMILES | Ki [1] [µM] | Ki [2] [µM] | Ki ([1]; read-out: Ki (μM) mouse, mouse TAAR1, HEK-293 membranes, first value of cell mouse/rat) [µM] | Ki ([2]; read-out: Ki (μM) rat, rat TAAR1, HEK-293 membranes, second value of cell mouse/rat) [µM]
CCCc1n[nH]c(C(=O)Nc2ccc([C@H]3O[C@@H]4CN[C@H]3C4)cc2)c1Cl [Example 49, 4-Chloro-N-[4-[(1S,3R,4S)-2-oxa-5-azabicyclo[2.2.1]heptan-3-yl]phenyl]-3-propyl-1H-pyrazole-5-carboxamide] | 0.0044 | 0.037 | – | –
CCc1n[nH]c(C(=O)Nc2ccc([C@H]3O[C@@H]4CN[C@H]3C4)cc2)c1C [Example 50, 3-Ethyl-4-methyl-N-[4-[(1S,3R,4S)-2-oxa-5-azabicyclo[2.2.1]heptan-3-yl]phenyl]-1H-pyrazole-5-carboxamide] | 0.0128 | 0.344 | – | –
O=C(Nc1ccc([C@H]2O[C@@H]3CN[C@H]2C3)cc1)c1ccc(OCC(F)(F)F)cn1 [Example 51, N-[4-[(1S,3R,4S)-2-Oxa-5-azabicyclo[2.2.1]heptan-3-yl]phenyl]-5-(2,2,2-trifluoroethoxy)pyridine-2-carboxamide] | 0.0034 | 0.0438 | – | –
FC(F)(F)Oc1ccc(CNc2ccc([C@H]3O[C@@H]4CN[C@H]3C4)cc2)cc1 [Example 52, 4-[(1S,3R,4S)-2-Oxa-5-azabicyclo[2.2.1]heptan-3-yl]-N-[[4-(trifluoromethoxy)phenyl]methyl]aniline] | 0.0043 | 0.194 | – | –
Brc1ccc([C@H]2O[C@@H]3CN[C@H]2C3)cc1 [Example 53, (1S,3R,4S)-3-(4-Bromophenyl)-2-oxa-5-azabicyclo[2.2.1]heptane] | 0.0034 | 0.0052 | – | –
Brc1ccc([C@@H]2O[C@H]3CN[C@@H]2C3)cc1 [Example 54, (1R,3S,4R)-3-(4-Bromophenyl)-2-oxa-5-azabicyclo[2.2.1]heptane] | 0.145 | 0.0346 | – | –
O=C(Nc1ccc(Cl)cc1)c1ccc([C@H]2O[C@@H]3CN[C@H]2C3)cc1 [Example 55] | 0.0007 | 0.0123 | – | –
O=C(Nc1ccc(Br)cc1)c1ccc([C@H]2O[C@@H]3CN[C@H]2C3)cc1 [Example 56, N-(4-Bromophenyl)-4-[(1S,3R,4S)-2-oxa-5-azabicyclo[2.2.1]heptan-3-yl]benzamide] | 0.0009 | 0.0501 | – | –
O=C(Nc1ccc(F)cc1)c1ccc([C@H]2O[C@@H]3CN[C@H]2C3)cc1 [Example 57, N-(4-Fluorophenyl)-4-[(1S,3R,4S)-2-oxa-5-azabicyclo[2.2.1]heptan-3-yl]benzamide] | 0.0034 | 0.0458 | – | –
CCOc1ccc(NC(=O)c2ccc([C@H]3O[C@@H]4CN[C@H]3C4)cc2)cc1 [Example 58, N-(4-Ethoxyphenyl)-4-[(1S,3R,4S)-2-oxa-5-azabicyclo[2.2.1]heptan-3-yl]benzamide] | 0.0013 | > 10 | – | –
O=C(Nc1ccc(C(F)(F)F)cc1)c1ccc([C@H]2O[C@@H]3CN[C@H]2C3)cc1 [Example 59, 4-[(1S,3R,4S)-2-Oxa-5-azabicyclo[2.2.1]heptan-3-yl]-N-[4-(trifluoromethyl)phenyl]benzamide] | 0.0022 | 1.02 | – | –
O=C(Nc1ccc(Cl)nc1)c1ccc([C@H]2O[C@@H]3CN[C@H]2C3)cc1 [Example 60, N-(6-Chloro-3-pyridyl)-4-[(1S,3R,4S)-2-oxa-5-azabicyclo[2.2.1]heptan-3-yl]benzamide] | 0.0033 | 5.34 | – | –
FC(F)(F)c1ccc(Nc2ccc([C@H]3O[C@@H]4CN[C@H]3C4)cc2)cn1 [Example 61, N-[4-[(1S,3R,4S)-2-Oxa-5-azabicyclo[2.2.1]heptan-3-yl]phenyl]-6-(trifluoromethyl)pyridin-3-amine] | 0.0077 | 0.715 | – | –
CCOc1ccc(NC(=O)c2ccc([C@H]3O[C@@H]4CN[C@H]3C4)cc2)cn1 [Example 62, N-(6-Ethoxy-3-pyridyl)-4-[(1S,3R,4S)-2-oxa-5-azabicyclo[2.2.1]heptan-3-yl]benzamide] | 0.0049 | 0.107 | – | –
O=C(NCc1ccc(C(F)(F)F)cc1)c1ccc([C@H]2O[C@@H]3CN[C@H]2C3)cc1 [Example 63, 4-[(1S,3R,4S)-2-Oxa-5-azabicyclo[2.2.1]heptan-3-yl]-N-[[4-(trifluoromethyl)phenyl]methyl]benzamide] | 0.0034 | 0.593 | – | –
CCc1n[nH]c(C(=O)Nc2ccc([C@@H]3O[C@H]4CN[C@@H]3C4)cc2)c1C [Example 67, 3-Ethyl-4-methyl-N-[4-[(1R,3S,4R)-2-oxa-5-azabicyclo[2.2.1]heptan-3-yl]phenyl]-11H-pyrazole-5-carboxamide] | – | – | 0.01 | 0.503
O=C(COCCC(F)(F)F)Nc1ccc([C@H]2O[C@@H]3CN[C@H]2C3)cc1 [Example 70, N-[4-[(1S,3R,4S)-2-Oxa-5-azabicyclo[2.2.1]heptan-3-yl]phenyl]-2-(3,3,3-trifluoropropoxy)acetamide] | 0.0094 | 0.512 | – | –
CCc1ncc(C(=O)Nc2ccc([C@@H]3O[C@H]4CN[C@@H]3C4)cc2)cn1 [Example 74, 2-Ethyl-N-[4-[(1R,3S,4R)-2-oxa-5-azabicyclo[2.2.1]heptan-3-yl]phenyl]pyrimidine-5-carboxamide] | 0.109 | 0.19 | – | –

Now from value to compound, other results behind:

Ki [1] [µM] | Ki [2] [µM] | SMILES | Ki ([1]; read-out: Ki (μM) mouse, mouse TAAR1, HEK-293 membranes, first value of cell mouse/rat) [µM] | Ki ([2]; read-out: Ki (μM) rat, rat TAAR1, HEK-293 membranes, second value of cell mouse/rat) [µM]
0.0033 | 1.6 | O=C(NCc1ccc(Cl)cc1)c1ccc([C@H]2O[C@@H]3CN[C@H]2C3)cc1 [Example 64, N-[(4-Chlorophenyl)methyl]-4-[(1S,3R,4S)-2-oxa-5-azabicyclo[2.2.1]heptan-3-yl]benzamide] | – | –
2.07 | 0.0702 | COCCCNc1ccc([C@H]2O[C@@H]3CN[C@H]2C3)cc1 [Example 65, N-(3-Methoxypropyl)-4-[(1S,3R,4S)-2-oxa-5-azabicyclo[2.2.1]heptan-3-yl]aniline] | – | –
0.0123 | 3.96 | O=C(COCC(F)(F)F)Nc1ccc([C@H]2O[C@@H]3CN[C@H]2C3)cc1 [Example 66, N-[4-[(1S,3R,4S)-2-Oxa-5-azabicyclo[2.2.1]heptan-3-yl]phenyl]-2-(2,2,2-trifluoroethoxy)acetamide] | – | –
0.0031 | 0.0179 | CCCc1n[nH]c(C(=O)Nc2ccc([C@@H]3O[C@H]4CN[C@@H]3C4)cc2)c1Cl [Example 68, 4-Chloro-N-[4-[(1R,3S,4R)-2-oxa-5-azabicyclo[2.2.1]heptan-3-yl]phenyl]-3-propyl-1H-pyrazole-5-carboxamide] | – | –
0.0066 | 0.153 | Cc1c(C2CC2)n[nH]c1C(=O)Nc1ccc([C@@H]2O[C@H]3CN[C@@H]2C3)cc1 [Example 69, 3-Cyclopropyl-4-methyl-N-[4-[(1R,3S,4R)-2-oxa-5-azabicyclo[2.2.1]heptan-3-yl]phenyl]-1H-pyrazole-5-carboxamide] | – | –
0.0054 | 0.0135 | O=C(Nc1ccc([C@@H]2O[C@H]3CN[C@@H]2C3)cc1)c1ccc(C(F)(F)F)cn1 [Example 71, N-[4-[(1R,3S,4R)-2-Oxa-5-azabicyclo[2.2.1]heptan-3-yl]phenyl]-5-(trifluoromethyl)pyridine-2-carboxamide] | – | –
0.0153 | 0.0093 | O=C(Nc1ccc([C@@H]2O[C@H]3CN[C@@H]2C3)cc1)c1ccc(C(F)(F)F)nc1 [Example 72, N-[4-[(1R,3S,4R)-2-Oxa-5-azabicyclo[2.2.1]heptan-3-yl]phenyl]-6-(trifluoromethyl)pyridine-3-carboxamide] | – | –
0.0177 | 0.857 | O=C(COCC(F)(F)F)Nc1ccc([C@@H]2O[C@H]3CN[C@@H]2C3)cc1 [Example 73, N-[4-[(1R,3S,4R)-2-Oxa-5-azabicyclo[2.2.1]heptan-3-yl]phenyl]-2-(2,2,2-trifluoroethoxy)acetamide] | – | –
